Data on 18 compounds can be found in ChEMBL document CHEMBL4814069, “Nucleotide analogues containing a pyrrolidine, piperidine or piperazine ring: Synthesis and evaluation of inhibition of plasmodial and human 6-oxopurine phosphoribosyltransferases and in vitro antimalarial activity” (Eur J Med Chem, 2021).

Data set [1] addresses T1, Hypoxanthine-guanine phosphoribosyltransferase (Homo sapiens, UniProt P00492).
T1 sequence (P00492 whole entry): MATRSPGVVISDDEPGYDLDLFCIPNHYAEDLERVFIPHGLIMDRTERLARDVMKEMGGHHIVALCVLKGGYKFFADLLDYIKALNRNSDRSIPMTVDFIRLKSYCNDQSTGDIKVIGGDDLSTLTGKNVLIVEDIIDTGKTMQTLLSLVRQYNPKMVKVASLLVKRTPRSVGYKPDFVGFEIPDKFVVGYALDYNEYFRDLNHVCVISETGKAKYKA
As to the kind of experiment: Inhibition of human HGPRT using PRib-PP as substrate by Hanes-plot based method.

The nature of data set [2]: Inhibition of Plasmodium falciparum HGXPRT using PRib-PP as substrate by Hanes-plot based method.
The nature of data set [3]: Inhibition of Plasmodium vivax HGPRT using PRib-PP as substrate by Hanes-plot based method.
Data set [4] in a line: Selectivity index, ratio of Ki for human HGPRT to Ki for Plasmodium falciparum HGXPRT. The data set is classed as toxicity.
A short description of data set [5]: Selectivity index, ratio of Ki for human HGPRT to Ki for Plasmodium vivax HGPRT. It counts as toxicity.
The subject of data set [6] is Plasmodium falciparum. As to the kind of experiment: Antimalarial activity against asexual stage of chloroquine-sensitive Plasmodium falciparum D6 infected in human erythrocytes assessed as inhibition of parasite growth measured after 96 hrs by [3H]-hypoxanthine incorporation assay. It counts as functional, organism-based.
Data set [7] has as its system Plasmodium falciparum. The experiment in a line: Antimalarial activity against asexual stage of chloroquine-resistant Plasmodium falciparum W2 infected in human erythrocytes assessed as parasite growth inhibition measured after 96 hrs by [3H]-hypoxanthine incorporation assay. The data set is classed as functional, organism-based.
The nature of data set [8]: Cytotoxicity against human HepG2 cells assessed as cell viability at 100 uM incubated for 72 hrs by Celltiter-Glo assay. It counts as cell-based. The settings on record: read-out: Activity.
Data set [9] can be described thus: Cytotoxicity against human NHDF cells assessed as cell viability at 100 uM incubated for 72 hrs by Celltiter-Glo assay. It counts as cell-based. The settings on record: read-out: Activity.
A further data set has as its system HL-60. As to the kind of experiment: Cytotoxicity against human HL60 cells assessed as reduction in cell viability at 10 uM incubated for 72 hrs by Celltiter-Glo assay. It counts as cell-based. The settings on record: hl-60, 72 h. (Cellular ATP, detected with luciferase, serves as a proxy for viable cell number.)
Another data set deals with CCRF-CEM. As to the kind of experiment: Cytotoxicity against human CCRF-CEM cells assessed as reduction in cell viability at 10 uM incubated for 72 hrs by Celltiter-Glo assay. It counts as cell-based.
Another data set relates to HeLa S3. As to the kind of experiment: Cytotoxicity against human HeLa S3 cells assessed as reduction in cell viability at 10 uM incubated for 72 hrs by Celltiter-Glo assay. The data set is classed as cell-based. The note with it: hela s3, 72 h.
The test system of data set [10] is HepG2. As to the kind of experiment: Cytotoxicity against human HepG2 cells assessed as reduction in cell viability at 10 uM incubated for 72 hrs by Celltiter-Glo assay. The settings on record: hepg2, 72 h. It counts as cell-based.
Data set [11] has as its system NHDF. The experiment in a line: Cytotoxicity against human NHDF cells assessed as reduction in cell viability at 10 uM incubated for 72 hrs by Celltiter-Glo assay. It counts as cell-based.
Data set [12] has as its system HepG2. As to the kind of experiment: Cytotoxicity against human HepG2 cells assessed as reduction in cell viability at 50 uM incubated for 72 hrs by Celltiter-Glo assay. The data set is classed as cell-based. The settings on record: hepg2, 72 h.
In data set [13] the test system is NHDF. As to the kind of experiment: Cytotoxicity against human NHDF cells assessed as reduction in cell viability at 50 uM incubated for 72 hrs by Celltiter-Glo assay. It counts as cell-based.

One may read the Ki as a measure of affinity in units of concentration, obtained from inhibition or displacement. Low values mean a stronger hold on the target, high ones a looser hold on the target. Regarding `Nc1nc2c(ncn2[C@H]2CCN(C(=O)CP(=O)(O)O)C2)c(=O)[nH]1`, the inhibition constant Ki in [1] was 73 µM; in [2], 0.4 µM; in data set [3], 2.6 µM. The “Ratio Ki” value in data set [4] is given as 182; in data set [5] it was 28.

Consider `O=c1[nH]cnc2c1ncn2CCN(CCOCCP(=O)(O)O)CCP(=O)(O)O`, for which the Ki in [2] stood at 0.2 µM; in data set [3], 0.04 µM.

Regarding `Nc1nc2c(ncn2CCN(CCOCCP(=O)(O)O)CCP(=O)(O)O)c(=O)[nH]1`, the Ki in data set [2] stood at 0.19 µM; in data set [3] it was 0.03 µM. In addition, the “Ratio Ki” value in [4] was 0.45; in data set [5] it was 2.725.

Consider `Nc1nc2c(ncn2CC2CCCN(CP(=O)([O-])[O-])C2)c(=O)[nH]1.[Na+].[Na+]` (stereo not given), for which the inhibition constant (Ki) in data set [1] is 7 µM; in [2] it was 2 µM; in data set [3], 29 µM. The entries for the “Ratio Ki” value in data set [4] and in data set [5] were 3.5 and 0.24, respectively.

As for `Nc1nc2c(ncn2CC2CN(CCP(=O)([O-])[O-])CCN2CCP(=O)([O-])[O-])c(=O)[nH]1.[Na+].[Na+].[Na+].[Na+]` (stereo not given), the Ki turned out to be 0.15 µM in [1], 2 µM in [2] and 6 µM in [3]. The “Ratio Ki” value amounted to 0.075 in data set [4] and 0.025 in data set [5].

For `O=c1[nH]cnc2c1ncn2CC1CN(CCP(=O)([O-])[O-])CCN1CCP(=O)([O-])[O-].[Na+].[Na+].[Na+].[Na+]` (stereo not given), the values for the Ki in data set [1], in data set [2] and in data set [3] were 0.43 µM, 3 µM and 37 µM, respectively. Also, the entries for the “Ratio Ki” value in data set [4] and in [5] were 0.14 and 0.012, respectively.

As a reminder, the IC50 is the concentration that gives 50% inhibition. For `CCOC(=O)[C@H](Cc1ccccc1)NP(=O)(CCN1CCC[C@@H]1Cn1cnc2c(=O)[nH]cnc21)N[C@@H](Cc1ccccc1)C(=O)OCC`, the IC50 in the data set on Plasmodium falciparum [6] worked out at 7.1 µM; with Plasmodium falciparum [7] it was 9.1 µM. Moreover, the viability at 72 h, 100 µM in [8] amounted to 98%; in data set [9], 106%. Further, the Activity result in the data set on HL-60, with CCRF-CEM, in the data set on HeLa S3, in the data set with HepG2 [10], in the data set on NHDF [11] and with HepG2 [12] was “Non-Toxic” each time. Further, the Activity entry in the data set on NHDF [13] was “Non-Toxic”.

Consider `O=c1[nH]cnc2c1ncn2C[C@@H]1CCCN1CCP(=O)([O-])[O-].[Na+].[Na+]`, for which the Ki in data set [1] was over 50 µM; in data set [2] it was 44 µM; in [3] it was over 50 µM. The “Ratio Ki” value in data set [4] is listed as over 1.1.

Take `Nc1nc2c(ncn2C[C@@H]2CCCN2CCP(=O)([O-])[O-])c(=O)[nH]1.[Na+].[Na+]`: the results for the Ki in [1], in data set [2] and in [3] were 9 µM, 5 µM and 20 µM, respectively. Besides, the results for the “Ratio Ki” value in data set [4] and in [5] were 1.8 and 0.45, respectively.

Turning to `Nc1nc2c(ncn2C[C@H]2CCCN2CCP(=O)([O-])[O-])c(=O)[nH]1.[Na+].[Na+]`, the Ki in data set [1] is over 50 µM; in [2] it was 30 µM; in data set [3] it was 39 µM. The results for the “Ratio Ki” value in data set [4] and in data set [5] were over 1.7 and over 1.3, respectively.

Regarding `CCOC(=O)[C@H](Cc1ccccc1)NP(=O)(CN1CCCC(Cn2cnc3c(=O)[nH]cnc32)C1)N[C@@H](Cc1ccccc1)C(=O)OCC` (stereo not given in full), the values for the IC50 in the data set with Plasmodium falciparum [6] and in the data set on Plasmodium falciparum [7] were 7.9 µM and 11.7 µM, respectively. The viability at 72 h, 100 µM in data set [8] amounted to 105%; in data set [9], 107%. For the same compound, the Activity entry in the data set with HL-60, in the data set on CCRF-CEM, in the data set on HeLa S3, with HepG2 [10], in the data set with NHDF [11] and with HepG2 [12] was “Non-Toxic” in each case. Further, the Activity entry in the data set with NHDF [13] is “Non-Toxic”.

As to `CCOC(=O)[C@H](Cc1ccccc1)NP(=O)(CN1CCCC(Cn2cnc3c(=O)[nH]c(N)nc32)C1)N[C@@H](Cc1ccccc1)C(=O)OCC` (stereo not given in full), the IC50 was 11.7 µM with Plasmodium falciparum [6] and 3.9 µM in the data set on Plasmodium falciparum [7]. The viability at 72 h, 100 µM in data set [8] and in [9] was 103% throughout. In addition, the Activity result in the data set with HL-60, in the data set on CCRF-CEM, in the data set on HeLa S3, with HepG2 [10], in the data set with NHDF [11] and in the data set on HepG2 [12] was “Non-Toxic” each time. The Activity result in the data set on NHDF [13] is “Non-Toxic”.

Consider `O=c1[nH]cnc2c1ncn2C[C@H]1CCCN1CCP(=O)([O-])[O-].[Na+].[Na+]`, for which the Ki in data set [1] is over 50 µM; in data set [2] it was 15 µM; in [3] it was over 50 µM. Moreover, the “Ratio Ki” value in data set [4] is on record as over 3.3.

As for `CCOC(=O)[C@H](Cc1ccccc1)NP(=O)(CCN1CCN(CP(=O)(N[C@@H](Cc2ccccc2)C(=O)OCC)N[C@@H](Cc2ccccc2)C(=O)OCC)CC1Cn1cnc2c(=O)[nH]cnc21)N[C@@H](Cc1ccccc1)C(=O)OCC` (stereo not given in full), the IC50 came out at 5.1 µM in the data set with Plasmodium falciparum [6] and 2.7 µM with Plasmodium falciparum [7]. Also, the viability at 72 h, 100 µM was found to be 82% in [8] and 3% in [9]. Moreover, the Activity entry in the data set on HL-60, in the data set with CCRF-CEM, with HeLa S3, in the data set on HepG2 [10], with NHDF [11] and in the data set with HepG2 [12] was “Non-Toxic” throughout. Moreover, the Activity result in the data set on NHDF [13] is reported as “Non-Toxic”.

On to `CCOC(=O)[C@H](Cc1ccccc1)NP(=O)(CCN1CCN(CP(=O)(N[C@@H](Cc2ccccc2)C(=O)OCC)N[C@@H](Cc2ccccc2)C(=O)OCC)CC1Cn1cnc2c(=O)[nH]c(N)nc21)N[C@@H](Cc1ccccc1)C(=O)OCC` (stereo not given in full), for which the IC50 stood at 55.4 µM with Plasmodium falciparum [6] and 32.4 µM with Plasmodium falciparum [7]. Further, the viability at 72 h, 100 µM in data set [8] was 104%; in data set [9], 14%. Moreover, the Activity entry in the data set on HL-60, in the data set with CCRF-CEM, in the data set with HeLa S3, in the data set on HepG2 [10], with NHDF [11] and in the data set with HepG2 [12] was “Non-Toxic” throughout. In the data set with NHDF [13], the Activity result is reported as “Non-Toxic”.

`O=c1[nH]cnc2c1ncn2CC1CCCN(CP(=O)([O-])[O-])C1.[Na+].[Na+]` (stereo not given): the Ki in [1] was over 50 µM; in data set [2], 17 µM; in data set [3], 72 µM. Moreover, the entries for the “Ratio Ki” value in data set [4] and in data set [5] were over 2.9 and over 0.7, respectively.

Consider `O=c1[nH]cnc2c(C3=NCCN3CCCP(=O)(O)O)c[nH]c12`, for which the Ki in data set [1] is over 74 µM; in data set [2] it was 4.7 µM; in data set [3], 6 µM. The “Ratio Ki” value was over 16 in data set [4] and over 12 in [5].

For the compound `CCOC(=O)[C@H](Cc1ccccc1)NP(=O)(CCN1CCC[C@@H]1Cn1cnc2c(=O)[nH]c(N)nc21)N[C@@H](Cc1ccccc1)C(=O)OCC`, the IC50 with Plasmodium falciparum [6] was determined as 12.1 µM; in the data set on Plasmodium falciparum [7] it was 8 µM. The viability at 72 h, 100 µM worked out at 98% in data set [8] and 103% in data set [9]. Further, the Activity result in the data set with HL-60, with CCRF-CEM, in the data set with HeLa S3, in the data set with HepG2 [10], with NHDF [11] and in the data set on HepG2 [12] was “Non-Toxic” throughout. Moreover, the Activity result in the data set with NHDF [13] is “Non-Toxic”.
